This note sets out measurements from patent US11186577B2, “Vasopressin receptor antagonists and products and methods related thereto” (BlackThorn Therapeutics, Inc., priority 2017, dated 2021).

The target in experiment [1] is human Arginine Vasopressin Receptor 1a (AVPR1a) (Homo sapiens (Human), UniProt P37288). The experiment can be described thus: Vasopressin V1A receptor antagonist assay (AVP-evoked calcium, FLIPR, CHO-AVPR1a cells). In kind it is cell-based. Summed up: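 Antagonism measured as reduction of AVP (EC80, set each assay day) calcium response on FLIPR in dye-loaded CHO-AVPR1a cells. Compounds, 3 μM top in 10-point 1:3 dilution, in duplicate, added 15 min before agonist at 37° C.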

The target in experiment [2] is human Oxytocin Receptor (hOTR) (Homo sapiens (Human), UniProt P30559). Kind of experiment: Oxytocin receptor antagonist assay (oxytocin-evoked calcium, FLIPR, CHEM-1-hOTR cells). As to conditions: read-out: OT IC50. It counts as cell-based. Summed up:
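Oxytocin-evoked intracellular calcium rise measured by FLIPR^TETRA fluorescence (Calcium-6 dye, 3 min read) in CHEM-1-hOTR cells. Test compounds, 10-point 1:3 dilutions, were added 15 min at 37 °C before an EC80 oxytocin challenge (EC80 set each assay day); buffer HBSS with 20 mM HEPES.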

Like-named read-outs stand apart in the source and are kept apart here.

human Oxytocin Receptor (hOTR), sequence (P30559 whole entry): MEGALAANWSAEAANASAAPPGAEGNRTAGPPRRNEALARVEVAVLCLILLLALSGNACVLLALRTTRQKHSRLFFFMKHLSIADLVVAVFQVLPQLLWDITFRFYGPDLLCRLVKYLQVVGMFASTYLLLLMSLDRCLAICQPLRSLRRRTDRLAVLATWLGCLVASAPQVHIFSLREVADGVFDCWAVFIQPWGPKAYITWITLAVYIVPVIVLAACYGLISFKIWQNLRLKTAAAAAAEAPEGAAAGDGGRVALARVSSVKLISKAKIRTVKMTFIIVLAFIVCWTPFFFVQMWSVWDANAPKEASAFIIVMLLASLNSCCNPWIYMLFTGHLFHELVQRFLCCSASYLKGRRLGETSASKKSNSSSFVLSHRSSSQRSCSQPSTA
human Arginine Vasopressin Receptor 1a (AVPR1a), sequence (P37288 whole entry): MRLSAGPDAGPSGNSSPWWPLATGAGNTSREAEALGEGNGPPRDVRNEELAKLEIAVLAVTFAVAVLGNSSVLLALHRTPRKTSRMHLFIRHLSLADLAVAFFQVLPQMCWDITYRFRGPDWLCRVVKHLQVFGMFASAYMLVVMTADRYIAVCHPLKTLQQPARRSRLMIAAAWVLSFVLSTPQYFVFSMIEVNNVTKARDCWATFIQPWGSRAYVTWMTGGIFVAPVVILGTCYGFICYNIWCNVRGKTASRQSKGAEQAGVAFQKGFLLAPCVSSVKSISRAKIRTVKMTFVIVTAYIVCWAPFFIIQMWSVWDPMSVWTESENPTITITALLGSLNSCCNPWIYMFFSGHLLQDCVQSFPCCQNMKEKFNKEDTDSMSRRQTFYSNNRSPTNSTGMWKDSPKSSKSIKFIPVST

With `COC(=O)N1Cc2cc(Cl)ccc2-n2c(C3CC4(C3)CN(c3ccc(F)cn3)C4)nnc2C1C` (single isomer, unassigned) [142A], the values for the IC50 in experiment [1] (read-out: V1a IC50) and in experiment [2] were less than 100 nM and greater than 1000 nM, respectively.
In the same order, the values of `COC(=O)N1Cc2cc(Cl)ccc2-n2c(C3CC4(C3)CN(c3ccc(F)cn3)C4)nnc2C1C` (single isomer, unassigned) [Cpd 142B] are 500 to 1000 nM and 500 to 1000 nM.
In the same order, the values of `CC(C)OC(=O)N1Cc2cc(Cl)ccc2-n2c(C3CC4(C3)CN(c3ccc(F)cn3)C4)nnc2C1C` (single isomer, unassigned) [Cpd 163A] are less than 100 nM and 100 to 500 nM.
In the same order, the values of `COC(=O)N1Cc2cc(Cl)ccc2-n2c(C3CC4(C3)CN(c3cnccn3)C4)nnc2C1C` (single isomer, unassigned) [Cpd 165A] are less than 100 nM and 500 to 1000 nM.
As to `COC(=O)N1Cc2cc(Cl)ccc2-n2c(C3CC4(C3)CN(c3ncccn3)C4)nnc2C1C` (single isomer, unassigned) [Cpd 166A], the IC50 was less than 100 nM in experiment [1] (read-out: V1a IC50) and greater than 1000 nM in experiment [2].
Turning to `CC(C)OC(=O)N1Cc2cc(Cl)ccc2-n2c(C3CC4(C3)CN(c3ncccn3)C4)nnc2C1C` (single isomer, unassigned) [Cpd 167A], the IC50 in experiment [1] (read-out: V1a IC50) was 100 to 500 nM; in experiment [2], 500 to 1000 nM.
In the same order, the values of `CCOC(=O)N1Cc2cc(Cl)ccc2-n2c(C3CC4(C3)CN(c3ncccn3)C4)nnc2C1C` (single isomer, unassigned) [Cpd 168A] are less than 100 nM and 500 to 1000 nM.
In the same order, the values of `CCOC(=O)N1Cc2cc(Cl)ccc2-n2c(C3CC4(C3)CN(c3ccc(F)cn3)C4)nnc2C1C` (single isomer, unassigned) [Cpd 169A] are less than 100 nM and 100 to 500 nM.
With `COC(=O)N1Cc2cc(Cl)ccc2-n2c(C3CC4(C3)CN(c3ncc(F)cn3)C4)nnc2C1C` (single isomer, unassigned) [Cpd 170A], the IC50 in experiment [1] (read-out: V1a IC50) was less than 100 nM; in experiment [2], greater than 1000 nM.
Take `CC1c2nnc(C3CC4(C3)CN(c3ncccn3)C4)n2-c2ccc(Cl)cc2CN1C(=O)OC1CC1` (single isomer, unassigned) [Cpd 171A]: the figures for the concentration for half-maximal inhibition (IC50) in experiment [1] (read-out: V1a IC50) and in experiment [2] were less than 100 nM and greater than 1000 nM, respectively.
Take `CC1c2nnc(C3CC4(C3)CN(c3ncccn3)C4)n2-c2ccc(Cl)cc2CN1C(=O)OC1CC1` (single isomer, unassigned) [Cpd 171B]: the IC50 in experiment [1] (read-out: V1a IC50) was 500 to 1000 nM; in experiment [2], greater than 1000 nM.
For the molecule `CC1c2nnc(C3CC4(C3)CN(c3ccc(F)cn3)C4)n2-c2ccc(Cl)cc2CN1C(=O)C1(F)CC1` (single isomer, unassigned) [Cpd 174A], the IC50 in experiment [1] (read-out: V1a IC50) was less than 100 nM; in experiment [2], 100 to 500 nM.
Consider `CC1c2nnc(C3CC4(C3)CN(c3ccc(F)cn3)C4)n2-c2ccc(Cl)cc2CN1C(=O)C(C)(C)F` (single isomer, unassigned) [Cpd 178A], for which the IC50 in experiment [1] (read-out: V1a IC50) is less than 100 nM; in experiment [2] it was 100 to 500 nM.
For the molecule `CC1c2nnc(C3CC4(C3)CN(c3ccc(F)cn3)C4)n2-c2ccc(Cl)cc2CN1C` (single isomer, unassigned) [Cpd 179A], the IC50 in experiment [1] (read-out: V1a IC50) is less than 100 nM; in experiment [2], greater than 1000 nM.
In the same order, the values of `CC1c2nnc(C3CC4(C3)CN(c3ccccn3)C4)n2-c2ccc(Cl)cc2CN1C(=O)C1(F)CC1` (single isomer, unassigned) [Cpd 181A] are less than 100 nM and 100 to 500 nM.
In the same order, the values of `CC1c2nnc(C3CC4(C3)CN(c3ccc(F)cn3)C4)n2-c2ccc(Cl)cc2CN1C(=O)OC1CC1` (single isomer, unassigned) [Cpd 191A] are less than 100 nM and 100 to 500 nM.
In the same order, the values of `CC1c2nnc(C3CC4(C3)CN(c3ncc(F)cn3)C4)n2-c2ccc(Cl)cc2CN1C(=O)OC1CC1` (single isomer, unassigned) [Cpd 192A] are less than 100 nM and greater than 1000 nM.
Take `CC(C)OC(=O)N1Cc2cc(Cl)ccc2-n2c(C3CC4(C3)CN(c3ncc(F)cn3)C4)nnc2C1C` (single isomer, unassigned) [Cpd 201A]: in experiment [1] (read-out: V1a IC50), the concentration for half-maximal inhibition (IC50) was less than 100 nM.
Consider `CC1c2nnc(C3CC4(C3)CN(c3ncccn3)C4)n2-c2ccc(Cl)cc2CN1C(=O)OC(CF)CF` (single isomer, unassigned) [Cpd 202A], for which the IC50 in experiment [1] (read-out: V1a IC50) is less than 100 nM; in experiment [2], greater than 1000 nM.
In the same order, the values of `CC1c2nnc(C3CC4(C3)CN(c3ccc(F)cn3)C4)n2-c2ccc(Cl)cc2CN1C(=O)OC(CF)CF` (single isomer, unassigned) [Cpd 203A] are less than 100 nM and 100 to 500 nM.
As for `CN1Cc2cc(Cl)ccc2-n2c(nnc2[C@H]2CC[C@H](Oc3ccccn3)CC2)C1` [balovaptan, reference compound], the IC50 in experiment [1] (in vitro antagonist assay, reference compounds, read-out: V1A IC50) is less than 100 nM; in experiment [2] (in vitro antagonist assay, reference compounds), greater than 1000 nM.
In the case of `CN1Cc2cc(Cl)ccc2-n2c(nnc2C2CC3(C2)CN(c2ccc(F)cn2)C3)C1` [compound 1, 8-chloro-1-(2-(5-fluoropyridin-2-yl)-2-azaspiro[3.3]heptan-6-yl)-5-methyl-5,6-dihydro-4H-benzo[f][1,2,4]triazolo[4,3-a][1,4]diazepine], the IC50 was less than 100 nM in experiment [1] (read-out: V1a IC50) and greater than 1000 nM in experiment [2].
Take `CN1Cc2cc(Cl)ccc2-n2c(nnc2C2CC3(C2)CN(c2ccccn2)C3)C1` [compound 2]: the IC50 in experiment [1] (read-out: V1a IC50) is less than 100 nM; in experiment [2] it was greater than 1000 nM.
In the same order, the values of `CN1Cc2cc(Cl)ccc2-n2c(nnc2C2CC3(C2)CN(c2cnccn2)C3)C1` [compound 3] are less than 100 nM and greater than 1000 nM.
As to `CN1Cc2cc(Cl)ccc2-n2c(nnc2C2CC3(C2)CN(c2ncccc2F)C3)C1` [compound 4], the figures for the IC50 in experiment [1] (read-out: V1a IC50) and in experiment [2] were less than 100 nM and greater than 1000 nM, respectively.
In the same order, the values of `CN1Cc2cc(Cl)ccc2-n2c(nnc2C2CC3(C2)CN(c2cccc(F)n2)C3)C1` [compound 8] are less than 100 nM and greater than 1000 nM.
Turning to `CN1Cc2cc(Cl)ccc2-n2c(nnc2C2CC3(C2)CN(C(=O)C2CC2)C3)C1` [compound 28], the IC50 in experiment [1] (read-out: V1a IC50) is less than 100 nM; in experiment [2], greater than 1000 nM.
For the molecule `COCCN1Cc2cc(Cl)ccc2-n2c(nnc2C2CC3(C2)CN(c2ccccn2)C3)C1` [compound 39, 8-chloro-5-(2-methoxyethyl)-1-(2-(pyridin-2-yl)-2-azaspiro[3.3]heptan-6-yl)-5,6-dihydro-4H-benzo[f][1,2,4]triazolo[4,3-a][1,4]diazepine], the concentration for half-maximal inhibition (IC50) is less than 100 nM in experiment [1] (read-out: V1a IC50) and greater than 1000 nM in experiment [2].
`Clc1ccc2c(c1)CN(C1CCC1)Cc1nnc(C3CC4(C3)CN(c3ccccn3)C4)n1-2` [compound 41]: the IC50 in experiment [1] (read-out: V1a IC50) is less than 100 nM; in experiment [2], 500 to 1000 nM.
In the same order, the values of `Fc1ccc(N2CC3(CC(c4nnc5n4-c4ccc(Cl)cc4CN(C4CCC4)C5)C3)C2)nc1` [compound 42] are less than 100 nM and 500 to 1000 nM.
In the same order, the values of `CCN1Cc2cc(Cl)ccc2-n2c(nnc2C2CC3(C2)CN(c2ccccn2)C3)C1` [compound 45] are less than 100 nM and greater than 1000 nM.
As for `CCN1Cc2cc(Cl)ccc2-n2c(nnc2C2CC3(C2)CN(c2cnccn2)C3)C1` [compound 46], the IC50 in experiment [1] (read-out: V1a IC50) was less than 100 nM; in experiment [2], greater than 1000 nM.
In the same order, the values of `CC(C)N1Cc2cc(Cl)ccc2-n2c(nnc2C2CC3(C2)CN(c2cnccn2)C3)C1` [compound 47] are less than 100 nM and greater than 1000 nM.
In the same order, the values of `CC(C)N1Cc2cc(Cl)ccc2-n2c(nnc2C2CC3(C2)CN(c2ccccn2)C3)C1` [compound 48] are less than 100 nM and greater than 1000 nM.
For the molecule `CCN1Cc2cc(Cl)ccc2-n2c(nnc2C2CC3(C2)CN(c2ccc(F)cn2)C3)C1` [compound 49], the IC50 in experiment [1] (read-out: V1a IC50) is less than 100 nM; in experiment [2], greater than 1000 nM.
In the same order, the values of `CC(C)N1Cc2cc(Cl)ccc2-n2c(nnc2C2CC3(C2)CN(c2ccc(F)cn2)C3)C1` [compound 50] are less than 100 nM and greater than 1000 nM.
Turning to `FC(F)CN1Cc2cc(Cl)ccc2-n2c(nnc2C2CC3(C2)CN(c2ccccn2)C3)C1` [compound 52], the IC50 is less than 100 nM in experiment [1] (read-out: V1a IC50) and 500 to 1000 nM in experiment [2].
In the same order, the values of `CC(C)N1Cc2cc(Cl)ccc2-n2c(nnc2C2CC3(C2)CN(c2ncccc2F)C3)C1` [compound 54] are less than 100 nM and greater than 1000 nM.
In the same order, the values of `Clc1ccc2c(c1)CN(C1CC1)Cc1nnc(C3CC4(C3)CN(c3ccccn3)C4)n1-2` [compound 56] are less than 100 nM and 500 to 1000 nM.
In the same order, the values of `Clc1ccc2c(c1)CN(C1COC1)Cc1nnc(C3CC4(C3)CN(c3ccccn3)C4)n1-2` [compound 57, 8-chloro-5-(oxetan-3-yl)-1-(2-(pyridin-2-yl)-2-azaspiro[3.3]heptan-6-yl)-5,6-dihydro-4H-benzo[f][1,2,4]triazolo[4,3-a][1,4]diazepine] are less than 100 nM and greater than 1000 nM.
For `CC(CF)N1Cc2cc(Cl)ccc2-n2c(nnc2C2CC3(C2)CN(c2ccccn2)C3)C1` (stereo not drawn) [compound 58], the IC50 in experiment [1] (read-out: V1a IC50) is less than 100 nM; in experiment [2], greater than 1000 nM.
In the same order, the values of `FCCN1Cc2cc(Cl)ccc2-n2c(nnc2C2CC3(C2)CN(c2ccccn2)C3)C1` [compound 59] are less than 100 nM and greater than 1000 nM.
For `COC(=O)N1Cc2cc(Cl)ccc2-n2c(nnc2C2CC3(C2)CN(c2ccc(F)cn2)C3)C1` [compound 61], the IC50 in experiment [1] (read-out: V1a IC50) was less than 100 nM; in experiment [2], 500 to 1000 nM.
In the same order, the values of `CC(C)C(=O)N1Cc2cc(Cl)ccc2-n2c(nnc2C2CC3(C2)CN(c2ccc(F)cn2)C3)C1` [compound 63] are less than 100 nM and greater than 1000 nM.

The IC50 is the concentration needed to halve the response being measured.
